This note sets out measurements from US20240158447A1, “PEPTIDES FOR USE IN THE TREATMENT OR PREVENTION OF MYOCARDIAL DAMAGE” (THE UNIVERSITY OF WESTERN AUSTRALIA, priority 2020, published 2024).

For experiment [1], the system named is wild type cardiac myocytes. Kind of experiment: Intracellular superoxide (DHE) after H2O2 in cardiac myocytes. The experiment is classed as cell-based, mouse. Conditions: 20 min incubation with 0.5-1 μM peptide; 30 μM H2O2 5 min; FIG. 3(b). As for the experimental part:
Adult male C57BL/6J mice were anesthetized with pentobarbitone sodium (240 mg/kg) via intraperitoneal injection prior to excision of the heart. Ventricular myocytes were isolated. Mouse hearts were cannulated onto a Langendorff apparatus via the aorta and perfused retrogradely with Krebs-Henseleit Buffer (KHB) containing (in mM): 120 NaCl, 25 NaHCO3, 4.8 KCl, 2.2 MgSO4, 1.2 NaH2PO4 and 11 glucose (pH=7.35 with O2/CO2 at 37° C.) for 4 min at 37° C. Hearts were then perfused with KHB supplemented with 2.4 mg/ml collagenase B for 3 min, then 8 min perfusion in the presence of 40 μM calcium. Following perfusion, aorta and atria were removed, and ventricles gently teased apart and triturated to dissociate myocytes into suspension. […]
(§1) All in vitro studies were performed in freshly isolated myocytes at 37° C. […] Following a 20 min incubation with 0.5-1 μM AID(S)-TAT, AID-TAT, peptide 6 or peptide 7, fluorescent signal of individual myocytes was quantified using Metamorph 6.3 to measure signal intensity of manually traced cell regions. […]
Superoxide generation was assessed in cardiac myocytes using the fluorescent indicator dihydroethidium (DHE, 5 μM, 515-560 nm ex filter, 590 long pass em, Merck). […] Fluorescence was reported as percentage change in the slope of the signal measured at 20-40 min (treatment) over 1-10 min (pre-treatment).

The subject of experiment [2] is wild type cardiac myocytes. Kind of experiment: Mitochondrial membrane potential (JC-1) after H2O2 in cardiac myocytes. The experiment is classed as cell-based, mouse. Conditions: 20 min incubation with 0.5-1 μM peptide; calcium-free; 30 μM H2O2 5 min; FIG. 3(c). As for the experimental part:
Adult male C57BL/6J mice were anesthetized with pentobarbitone sodium (240 mg/kg) via intraperitoneal injection prior to excision of the heart. Ventricular myocytes were isolated. Mouse hearts were cannulated onto a Langendorff apparatus via the aorta and perfused retrogradely with Krebs-Henseleit Buffer (KHB) containing (in mM): 120 NaCl, 25 NaHCO3, 4.8 KCl, 2.2 MgSO4, 1.2 NaH2PO4 and 11 glucose (pH=7.35 with O2/CO2 at 37° C.) for 4 min at 37° C. Hearts were then perfused with KHB supplemented with 2.4 mg/ml collagenase B for 3 min, then 8 min perfusion in the presence of 40 μM calcium. […]
as §1
Mitochondrial membrane potential (Ψm) was monitored in cardiac myocytes by assessing alterations in 5,5′,6,6′-tetrachloro-1,1′,3,3′-tetraethylbenzimidazolylcarbocyanine iodide fluorescence (JC-1: 200 nM, ex 480 nm, em 580/535 nm, Molecular Probes). […] Ratiometric 580/535 nm fluorescent signal was quantified and reported as a percentage from the baseline pre-treatment average. […]

For the substance “AIDP7-TAT: QQQEEDLKGYLDWITQAE with TAT sequence”, the “H2O2 induced superoxide production (DHE)” value in experiment [1] is given as “reduced the generation of superoxide in a statistically significant manner”. The “mitochondrial membrane potential (JC-1)” value in experiment [2] is “reduced the mitochondrial membrane potential”.
